These compounds were tested against C-Raf FL (full length CRAF with Y340E and Y341E activating mutations, co-expressed with h14-3-3 zeta) (Homo sapiens (Human), UniProt P04049, Y340E/Y341E) (assay: In vitro Raf activity determination, AlphaScreen p-MEK readout, c-Raf (C-Raf FL)). Conditions: c-Raf approximately 4 nM, ATP 1 μM, pre-incubation 60 minutes, reaction 1 hour.
Format: biochemical
Summary of the method: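 Phosphorylation of kinase-dead biotinylated MEK1 (~10 nM) by C-Raf FL (~4 nM) read by AlphaScreen luminescence with anti-phospho-MEK1/2 after EDTA stop. ATP was 1 μM, with a 1 h reaction at room temperature. Compounds were pre-incubated with enzyme and substrate for 60 min in Tris/MgCl2 buffer, pH 7.5.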

| Compound | IC50 [nM] |
| --- | --- |
| Cc1ccc(NC(=O)c2ccnc(C(C)(F)F)c2)cc1-c1cnc2c(c1)N1CCOC[C@@H]1[C@@](C#N)(CF)C2 [Example 517, N-(3-((4aS,5S)-5-cyano-5-(fluoromethyl)-1,2,4,4a,5,6-hexahydro-[1,4]oxazino[4,3-a][1,5]naphthyridin-9-yl)-4-methyphenyl)-2-(1,1-difluoroethyl)iso-nicotinamide] | 0.1 |
| Cc1ccc(NC(=O)c2ccnc(C(C)(F)F)c2)cc1-c1cnc2c(c1)N1CCOC[C@H]1[C@](C#N)(CF)C2 [Example 518, N-(3-((4aR,5R)-5-cyano-5-(fluoromethyl)-1,2,4,4a,5,6-hexahydro-[1,4]oxazino[4,3-a][1,5]naphthyridin-9-yl)-4-methyphenyl)-2-(1,1-difluoroethyl)iso-nicotinamide] | 0.1 |
| Cc1ccc(NC(=O)c2ccnc(C(F)(F)F)c2)cc1-c1cnc2c(c1)N1CCOC[C@H]1[C@@](C#N)(CF)C2 [Example 520] | 0.1 |
| Cc1ccc(NC(=O)c2ccnc(C(F)(F)F)c2)cc1-c1cnc2c(c1)N1CCOC[C@H]1C[C@@H]2C [Example 521, N-(4-methyl-3-((4aR,6S)-6-methyl-1,2,4,4a,5,6-hexahydro-[1,4]oxazino[4,3-a][1,5]naph-thyridin-9-yl)phenyl)-2-(trifluoromethyl)iso-nicotinamide] | 0.5 |
| Cc1ccc(NC(=O)c2ccnc(C(F)(F)F)c2)cc1-c1cnc2c(c1)N1CCOC[C@H]1C[C@H]2C [Example 522, N-(4-methyl-3-((4aR,6R)-6-methyl-1,2,4,4a,5,6-hexahydro-[1,4]oxazino[4,3-a][1,5]naph-thyridin-9-yl)phenyl)-2-(trifluoromethyl)iso-nicotinamide] | 0.1 |
| Cc1ccc(NC(=O)c2ccnc(C(C)(C)F)c2)cc1-c1ccc2c(c1)N1CCOC[C@H]1[C@](F)(CN)C2 [Example 525, N-(3-((4aS,5R)-5-(aminomethyl)-5-fluoro-1,2,4,4a,5,6-hexahydro-[1,4]oxazino[4,3-a]quinolin-9-yl)-4-methylphenyl)-2-(2-fluoropropan-2-yl)isonicotinamide] | 1.5 |
| Cc1ncc(NC(=O)c2cccc(C(F)(F)F)c2)cc1-c1ccc2c(c1)N1CCOC[C@H]1[C@](F)(CN)C2 [Example 526, N-(5-((4aS,5R)-5-(aminomethyl)-5-fluoro-1,2,4,4a,5,6-hexahydro-[1,4]oxazino[4,3-a]quinolin-9-yl)-6-methylpyridin-3-yl)-3-(trifluoromethyl)benzamide] | 2.6 |
| Cc1ccc(NC(=O)c2ccnc(C(F)(F)F)c2)cc1-c1cnc2c(c1)N1CCOC[C@H]1C(C)(C)[C@H]2N [Example 527] | 0.9 |
| Cc1ccc(NC(=O)c2ccnc(C(F)(F)F)c2)cc1-c1ccc2c(c1)N1CCOCC[C@H]1C(F)(F)[C@H]2O [Example 528] | 0.7 |
| CC(=O)N[C@H]1c2ncc(-c3cc(NC(=O)c4ccnc(C(F)(F)F)c4)ccc3C)cc2N2CCOC[C@H]2C1(C)C [Example 529, N-(3-((4aR,6R)-6-acetamido-5,5-dimethyl-1,2,4,4a,5,6-hexahydro-[1,4]oxazino[4,3-a][1,5]naphthyridin-9-yl)-4-methylphenyl)-2-(trifluoromethyl)isonicotinamide] | 2.3 |
| CNC[C@@H]1Cc2ncc(-c3cc(NC(=O)c4ccnc(C(F)(F)F)c4)ccc3C)cc2N2CCOC[C@@H]12 [Example 530, N-(4-methyl-3-((4aR,5S)-5-((methylamino)meth-yl)-1,2,4,4a,5,6-hexahydro-[1,4]oxazino[4,3-a][1,5]naphthyridin-9-yl)phenyl)-2-(trifluoromethyl)iso-nicotinamide] | 0.4 |
| CNC[C@H]1Cc2ncc(-c3cc(NC(=O)c4ccnc(C(F)(F)F)c4)ccc3C)cc2N2CCOC[C@H]12 [Example 531, N-(4-methyl-3-((4aS,5R)-5-((methylamino)meth-yl)-1,2,4,4a,5,6-hexahydro-[1,4]oxazino[4,3-a][1,5]naphthyridin-9-yl)phenyl)-2-(trifluoromethyl)iso-nicotinamide] | 0.2 |
| CC[C@@H]1Oc2nnc(-c3cc(NC(=O)c4ccnc(C(C)(F)F)c4)ccc3C)cc2N2CCOC[C@H]12 [Example 532, 2-(1,1-Difluoroethyl)-N-(3-((6S,6aR)-6-ethyl-6a,7,9,10-tetrahydro-6H-[1,4]oxazino[4,3-d]pyridazino[3,4-b][1,4]oxazin-2-yl)-4-methylphenyl)isonicotinamide] | 0.2 |
| CC[C@H]1Oc2nnc(-c3cc(NC(=O)c4ccnc(C(C)(F)F)c4)ccc3C)cc2N2CCOC[C@H]12 [Example 533, 2-(1,1-difluoroethyl)-N-(3-((6R,6aR)-6-ethyl-6a,7,9,10-tetrahydro-6H-[1,4]oxazino[4,3-d]pyridazino[3,4-b][1,4]oxazin-2-yl)-4-methylphenyl)isonicotinamide] | 0.1 |
| CC[C@@H]1Oc2nnc(-c3cc(NC(=O)c4ccnc(C(C)(F)F)c4)ccc3C)cc2N2CCOC[C@@H]12 [Example 534, 2-(1,1-difluoroethyl)-N-(3-((6S,6aS)-6-ethyl-6a,7,9,10-tetrahydro-6H-[1,4]oxazino[4,3-d]pyridazino[3,4-b][1,4]oxazin-2-yl)-4-methylphenyl)isonicotinamide] | 0.1 |
| (R)-2-(1,1- difluoroethyl)-3- fluoro-N-(3-(7-(2- hydroxyethyl)-6- oxo-2,4,4a,5,6,7- hexahydro-1H- [1,4]oxazino[4,3- d]pyrido[2,3- b][1,4]diazepin-10- yl)-4- methylphenyl) isonicotinamide [Example 308] | 0.7 |
| N-(3-(8-(2- hydroxyethyl)-7- oxo- 1,2,4,5,5a,6,7,8- octahydropyrido[3′, 2′:2,3][1,4]diazepino [1,7- d][1,4]oxazepin- 11-yl)-4- methylphenyl)-2- (trifluoromethyl) isonicotinamide [Example 320] | 0.8 |

Source: patent US10377770B2 (Novartis AG, priority 2015, dated 2019)
